In ChEMBL document CHEMBL1153748 (J Med Chem, 2010) one finds EC50 and Efficacy data, which are given here for 35 molecules.

The target in assay [1] is T1, Peroxisome proliferator-activated receptor gamma (Homo sapiens, UniProt P37231).
T1 sequence (P37231 whole entry): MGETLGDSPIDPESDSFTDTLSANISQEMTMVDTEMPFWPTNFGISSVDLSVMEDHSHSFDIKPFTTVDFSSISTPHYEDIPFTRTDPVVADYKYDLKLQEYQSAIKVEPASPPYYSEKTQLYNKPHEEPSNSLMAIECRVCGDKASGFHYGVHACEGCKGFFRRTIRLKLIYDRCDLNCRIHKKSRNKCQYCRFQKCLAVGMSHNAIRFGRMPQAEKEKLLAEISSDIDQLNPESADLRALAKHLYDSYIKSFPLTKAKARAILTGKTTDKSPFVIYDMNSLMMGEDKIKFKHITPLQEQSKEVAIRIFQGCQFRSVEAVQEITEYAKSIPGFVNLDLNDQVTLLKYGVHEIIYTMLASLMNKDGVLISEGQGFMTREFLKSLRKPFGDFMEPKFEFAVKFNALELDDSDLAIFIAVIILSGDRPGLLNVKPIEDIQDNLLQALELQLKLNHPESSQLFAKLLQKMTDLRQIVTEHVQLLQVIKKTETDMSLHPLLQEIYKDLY
The class given is cell-based, 293T. The note with it: read-out: EC50.

Assay [2] has as its target T2, Peroxisome proliferator-activated receptor alpha (Homo sapiens, UniProt Q07869).
T2 sequence (Q07869 whole entry): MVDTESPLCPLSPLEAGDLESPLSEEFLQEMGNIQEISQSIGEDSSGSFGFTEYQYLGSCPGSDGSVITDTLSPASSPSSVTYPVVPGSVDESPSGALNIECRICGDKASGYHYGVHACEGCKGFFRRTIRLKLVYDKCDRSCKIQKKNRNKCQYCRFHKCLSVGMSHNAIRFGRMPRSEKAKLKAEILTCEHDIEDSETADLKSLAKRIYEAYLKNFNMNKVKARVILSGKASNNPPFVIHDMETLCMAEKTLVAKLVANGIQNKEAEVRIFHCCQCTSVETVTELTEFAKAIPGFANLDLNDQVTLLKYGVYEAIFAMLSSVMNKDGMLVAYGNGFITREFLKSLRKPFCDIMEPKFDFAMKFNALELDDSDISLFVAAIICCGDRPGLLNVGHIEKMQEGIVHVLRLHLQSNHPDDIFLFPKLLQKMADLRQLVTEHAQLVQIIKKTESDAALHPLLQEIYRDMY
Description: Agonist activity at human PPARalpha ligand binding domain expressed in human 293T cells co-transfected with Gal4-DBD by luciferase transactivation assay. To be noted: read-out: EC50. The class given is cell-based.

The target of assay [3] is T3, Peroxisome proliferator-activated receptor alpha (Homo sapiens) (UniProt Q07869).
T3 sequence (whole entry): T2 sequence (Q07869 whole entry)
Briefly: Agonist activity at human PPARalpha ligand binding domain expressed in human 293T cells co-transfected with Gal4-DBD by luciferase transactivation assay relative to KRP297. The class given is cell-based.

Assay [4] has as its target T4, Peroxisome proliferator-activated receptor delta (Homo sapiens, UniProt Q03181).
T4 sequence (Q03181 whole entry): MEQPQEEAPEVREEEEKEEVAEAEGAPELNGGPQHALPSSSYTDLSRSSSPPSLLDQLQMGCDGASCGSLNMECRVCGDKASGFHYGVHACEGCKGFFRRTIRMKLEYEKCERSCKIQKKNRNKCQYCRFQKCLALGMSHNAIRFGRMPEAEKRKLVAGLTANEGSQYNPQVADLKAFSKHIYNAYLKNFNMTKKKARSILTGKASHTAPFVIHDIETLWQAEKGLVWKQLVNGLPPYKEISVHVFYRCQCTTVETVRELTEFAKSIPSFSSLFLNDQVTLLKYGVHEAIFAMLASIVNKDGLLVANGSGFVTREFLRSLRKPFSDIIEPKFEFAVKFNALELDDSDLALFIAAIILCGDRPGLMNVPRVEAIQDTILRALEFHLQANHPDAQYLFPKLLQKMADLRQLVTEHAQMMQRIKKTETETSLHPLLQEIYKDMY

As for `COc1ccc(-c2nc(SCCCCOc3ccc(OCC(=O)O)c(C)c3)sc2-c2ccc(OC)cc2)cc1`, the EC50 in assay [1] is 6360 nM; in assay [2], 2370 nM; in assay [4], more than 10000 nM. This molecule also returned an Efficacy in assay [3] of 89%.
As to `Cc1cc(OCc2nc(-c3ccc(C(=O)N(C)C(C)C)cc3)c(-c3ccc(OC(F)(F)F)cc3)s2)ccc1OCC(=O)O`, the half-maximal effective concentration (EC50) in assay [1] was found to be 1200 nM; in assay [2], 690 nM; in assay [4] it was 2 nM. The Efficacy in assay [3] turned out to be 65%.
As for `Cc1cc(OCc2nc(-c3cnc(OC(C)C)nc3)c(-c3ccc(OC(F)(F)F)cc3)o2)ccc1OCC(=O)O`, the half-maximal effective concentration (EC50) in assay [1] is 980 nM; in assay [2], 160 nM; in assay [4], 1 nM. Besides, the Efficacy in assay [3] was found to be 82%.
As to `COc1ccc(-c2csc(COc3ccc(OCC(=O)O)c(C)c3)n2)cc1`, the EC50 in assay [1] is more than 10000 nM; in assay [2], 4080 nM; in assay [4], 4060 nM. Moreover, the Efficacy in assay [3] is 5%.
Take `Cc1cc(OCc2nc(-c3cnc(N4CCOCC4)nc3)c(-c3ccc(OC(F)(F)F)cc3)o2)ccc1OCC(=O)O`: the results for the EC50 in assay [1], in assay [2] and in assay [4] were 1030 nM, 410 nM and 1 nM, respectively. Further, in assay [3], the Efficacy was found to be 69%.
In the case of `COc1ccc(-c2nc(SCCCOc3ccc(OCC(=O)O)c(C)c3)sc2-c2ccc(OC)cc2)cc1`, the EC50 in assay [1] was 6890 nM; in assay [2], 5250 nM; in assay [4] it was more than 10000 nM. The Efficacy in assay [3] was determined as 62%.
Turning to `Cc1cc(OCc2nc(-c3ccc(N4CCCCC4)cc3)c(-c3ccc(OC(F)(F)F)cc3)s2)ccc1OCC(=O)O`, the EC50 in assay [1] was more than 10000 nM; in assay [2], 5200 nM; in assay [4], 52 nM. Besides, the Efficacy in assay [3] was found to be 9%.
Taken in the same sequence, the figures for `COc1ccc(-c2nc(SCCOc3ccc(OCC(=O)O)c(C)c3)sc2-c2ccc(OC)cc2)cc1` were 5660 nM, 5350 nM, more than 10000 nM and 64%.
As for `COc1ccc(-c2nc(COc3ccc(OCC(=O)O)c(C)c3)oc2-c2ccc(-c3ccccc3)cc2)cc1`, the EC50 is more than 10000 nM in assay [1], more than 10000 nM in assay [2] and 10 nM in assay [4].
`COc1ccc(-c2sc(COc3ccc(OCC(=O)O)c(C)c3)nc2C)cc1`: the EC50 in assay [1], in assay [2] and in assay [4] was more than 10000 nM each time.
`COc1ccc(-c2nc(COc3ccc(OCC(=O)O)c(C)c3)oc2-c2ccc(OC(F)(F)F)cc2)cc1`: the figures for the EC50 in assay [1], in assay [2] and in assay [4] were more than 10000 nM, more than 10000 nM and 10 nM, respectively.
As to `COc1ccc(-c2nc(CSc3ccc(CC(=O)O)cc3Cl)sc2-c2ccc(C(F)(F)F)cc2)cc1`, the EC50 in assay [1] was more than 10000 nM; in assay [2], more than 10000 nM; in assay [4] it was 62 nM.
For the molecule `COc1ccc(-c2nc(CSc3ccc(OCC(=O)O)c(C)c3)oc2-c2ccc(OC)cc2)cc1`, the half-maximal effective concentration (EC50) in assay [1] was more than 10000 nM; in assay [2], more than 10000 nM; in assay [4], 660 nM.
Consider `Cc1cc(OCc2nc(-c3ccc(-c4ccccc4)cc3)cs2)ccc1OCC(=O)O`, for which the EC50 was more than 10000 nM in assay [1], 480 nM in assay [2] and 340 nM in assay [4]. The same molecule had an Efficacy in assay [3] of 42%.
For `CCOC(Cc1ccc(OCc2nc(-c3ccc(OC)cc3)c(-c3ccc(C(F)(F)F)cc3)s2)cc1)C(=O)O` (stereo not given) the same measures were 1310 nM, 1090 nM, 1870 nM and 37%.
For the molecule `O=C(O)Cc1cccc(-c2noc(-c3ccccc3)c2C(=O)NCCOc2cc(Cl)cc(Cl)c2)c1`, the EC50 in assay [1] was more than 10000 nM; in assay [2], more than 10000 nM; in assay [4], 70 nM.
On to `COc1ccc(-c2nc(Sc3ccc(OCC(=O)O)c(C)c3)sc2-c2ccc(OC)cc2)cc1`, for which the results for the EC50 in assay [1], in assay [2] and in assay [4] were more than 10000 nM, more than 10000 nM and 1410 nM, respectively.
For the molecule `COc1ccc(-c2nc(COc3ccc(CC(=O)O)c(C)c3)sc2-c2ccc(C(F)(F)F)cc2)cc1`, the figures for the EC50 in assay [1], in assay [2] and in assay [4] were more than 10000 nM, more than 10000 nM and 140 nM, respectively.
As to `Cc1cc(OCc2nc(-c3ccc4c(c3)OCCO4)c(-c3ccc(OC(F)(F)F)cc3)s2)ccc1OCC(=O)O`, the figures for the concentration for a half-maximal effect (EC50) in assay [1], in assay [2] and in assay [4] were more than 10000 nM, more than 10000 nM and 17 nM, respectively.
For the molecule `Cc1cc(OCc2nc(-c3ccccc3)c(-c3ccccc3)s2)ccc1OCC(=O)O`, the EC50 in assay [1], in assay [2] and in assay [4] was more than 10000 nM each time.
Turning to `COc1ccc(-c2nc(COc3ccc(OCC(=O)O)c(C)c3)sc2-c2ccc(C(F)(F)F)cc2)cc1`, the EC50 in assay [1] is more than 10000 nM; in assay [2] it was more than 10000 nM; in assay [4] it was 40 nM.
In the case of `COc1ccc(-c2nc(COc3ccc(OC(C)(C)C(=O)O)cc3)sc2-c2ccc(C(F)(F)F)cc2)cc1`, the EC50 in assay [1] was more than 10000 nM; in assay [2], more than 10000 nM; in assay [4] it was 1200 nM.
For `COc1ccc(-c2nc(COc3ccc(OCC(=O)O)c(C)c3)oc2-c2ccc(C(F)(F)F)cc2)cc1`, the EC50 in assay [1] is more than 10000 nM; in assay [2] it was more than 10000 nM; in assay [4] it was 10 nM.
Regarding `Cc1cc(OCc2nc(-c3ccc(Cl)cc3)c(-c3ccc(Cl)cc3)s2)ccc1OCC(=O)O`, the EC50 in assay [1] is more than 10000 nM; in assay [2], more than 10000 nM; in assay [4] it was 510 nM.
Regarding `Cc1cc(OCc2nc(-c3ccc(C(F)(F)F)cc3)c(C)s2)ccc1OCC(=O)O`, the concentration giving a half-maximal response (EC50) in assay [1] was more than 10000 nM; in assay [2], more than 10000 nM; in assay [4], 2400 nM.
With `COc1ccc(-c2nc(CSc3ccc(OCC(=O)O)c(C)c3)sc2-c2ccc(C(F)(F)F)cc2)cc1`, the EC50 in assay [1] is more than 10000 nM; in assay [2], more than 10000 nM; in assay [4], 230 nM.
For `COc1ccc(-c2nc(COc3ccc(OCC(=O)O)cc3C)sc2-c2ccc(C(F)(F)F)cc2)cc1`, the EC50 in assay [1] is more than 10000 nM; in assay [2], more than 10000 nM; in assay [4] it was 2260 nM.
For `Cc1cc(OCc2nc(-c3cncnc3)c(-c3ccc(OC(F)(F)F)cc3)s2)ccc1OCC(=O)O`, the EC50 is more than 10000 nM in assay [1], more than 10000 nM in assay [2] and 59 nM in assay [4].
On to `Cc1cc(OCc2nc(-c3cccnc3)c(-c3ccc(OC(F)(F)F)cc3)o2)ccc1OCC(=O)O`, for which the EC50 is more than 10000 nM in assay [1], more than 10000 nM in assay [2] and 7 nM in assay [4].
Regarding `Cc1cc(OCc2nc(-c3ccc(NS(C)(=O)=O)cc3)c(-c3ccc(OC(F)(F)F)cc3)s2)ccc1OCC(=O)O`, the EC50 is more than 10000 nM in assay [1], more than 10000 nM in assay [2] and 775 nM in assay [4].
Turning to `COc1ccc(-c2nc(COc3ccc(OCC(=O)O)c(C)c3)oc2-c2ccc(Cl)c(Cl)c2)cc1`, the concentration for a half-maximal effect (EC50) in assay [1] is more than 10000 nM; in assay [2], more than 10000 nM; in assay [4] it was 70 nM.
With `COc1ccc(-c2nc(COc3ccc(OCC(=O)O)cc3)sc2-c2ccc(C(F)(F)F)cc2)cc1`, the figures for the EC50 in assay [1], in assay [2] and in assay [4] were more than 10000 nM, more than 10000 nM and 930 nM, respectively.
For `COc1ccc(-c2nc(CSc3ccc(OCC(=O)O)c(C)c3)sc2-c2ccc(OC)cc2)cc1`, the concentration giving a half-maximal response (EC50) in assay [1] was more than 10000 nM; in assay [2], more than 10000 nM; in assay [4], 470 nM.
For `Cc1cc(OCc2nc(-c3cncnc3)c(-c3ccc(OC(F)(F)F)cc3)o2)ccc1OCC(=O)O`, the EC50 is more than 10000 nM in assay [1], more than 10000 nM in assay [2] and 55 nM in assay [4].
On to `COc1ccc(-c2nc(COc3ccc4oc(C(=O)O)cc4c3)sc2-c2ccc(C(F)(F)F)cc2)cc1`, for which the EC50 in assay [1], in assay [2] and in assay [4] was more than 10000 nM each time.
